# Reference: US5340800A, “Peptide medicaments for the treatment of disease” (priority 1992, dated 1994)
# “And” between values parts separate entries of the source, which are not always exact repeats. Equal values may be shown once. Read-outs that look alike come from different tables or passages of the source. No end group written: not given here.
# What was measured:
# [1] = test system: polymorphonuclear leukocyte adhesion to endothelial cells activated with IL1; assay type: cell-based, human
# [2] = test system: polymorphonuclear leukocyte adhesion to TNF activated endothelial cells; assay type: cell-based, human; details: for Average % Change of PMN Adhesion to TNF Activated ECs: average over PMN donors (# donors in parentheses)
# How it was run: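 Human leukocytes were isolated on Ficoll-Hypaque and labelled for 15 min with 111In-oxide or 51Cr. They were added to TNF-activated HUVEC monolayers (≤5th passage, fibronectin-coated, washed with RPMI/1% FCS) for 30 min at 37 °C, 5% CO2. Adherent radioactivity was counted in quadruplicate, with basal binding to non-activated endothelium as control.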
sequence,measurement,setting,value
"IGWRNVTRLLVFATDDGFHFAGDGKLGAI [Peptide 4-29, NH2 --Ile--Gly--Trp--Arg--Asn--Val--Thr--Arg--Leu--Leu--Val--Phe--Ala--Thr--Asp--Asp--Gly--Phe--His--Phe--Ala--Gly--Asp--Gly--Lys--Leu--Gly--Ala--Ile--COOH]",Percent Change in PMN Adhesion to ECs activated with IL1,"[1]; 10^-7 M, donor 155*, peptide 1 wk 4°",+59%
same,Percent Change in PMN Adhesion to ECs activated with IL1,"[1]; 10^-7 M, donor 272*, peptide 1 wk 4°",+2%
same,Percent Change in PMN Adhesion to ECs activated with IL1,"[1]; 10^-8 M, donor 108*, peptide frozen",+21%
same,Percent Change in PMN Adhesion to ECs activated with IL1,"[1]; 10^-8 M, donor 489*, peptide frozen",-3%
same,activity of the peptide after storage for different times at 4° C.,[2],maintained
same,concentration of peak inhibitory activity in the PMN adhesion assay,[2],10^-5 to 10^-6 M and 10^-5 M
same,inhibitory activity in the PMN adhesion assay (in words),[2],significant inhibitory activity
same,Average % Change of PMN Adhesion to TNF Activated ECs,[2]; 10^-4 M,-30%
same,Percent Change in PMN Adhesion to TNF Activated ECs,"[2]; 10^-4 M, donor 108, peptide frozen",-16%
same,Percent Change in PMN Adhesion to TNF Activated ECs,"[2]; 10^-4 M, donor 272, peptide fresh (second line of donor 272 fresh, last line of table)",+53%
same,Average % Change of PMN Adhesion to TNF Activated ECs,[2]; 10^-5 M,-65%
same,Percent Change in PMN Adhesion to TNF Activated ECs,"[2]; 10^-5 M, donor 108, peptide frozen",-63%
same,Average % Change of PMN Adhesion to TNF Activated ECs,[2]; 10^-6 M,-48%
same,Percent Change in PMN Adhesion to TNF Activated ECs,"[2]; 10^-6 M, donor 100, peptide frozen",-68%
same,Percent Change in PMN Adhesion to TNF Activated ECs,"[2]; 10^-6 M, donor 272, peptide fresh (second line of donor 272 fresh, last line of table)",-41%
same,Percent Change in PMN Adhesion to TNF Activated ECs,"[2]; 10^-6 M, donor 475, peptide fresh",-76%
same,Average % Change of PMN Adhesion to TNF Activated ECs,[2]; 10^-7 M,+3%
same,Percent Change in PMN Adhesion to TNF Activated ECs,"[2]; 10^-7 M, donor 121, peptide frozen",+3%
same,Percent Change in PMN Adhesion to TNF Activated ECs,"[2]; 10^-7 M, donor 155, peptide fresh",+1%
same,Percent Change in PMN Adhesion to TNF Activated ECs,"[2]; 10^-7 M, donor 272, peptide fresh (second line of donor 272 fresh, last line of table)",+42%
same,Percent Change in PMN Adhesion to TNF Activated ECs,"[2]; 10^-7 M, donor 323, peptide fresh, or 4° for 2 wks",+45%
same,Percent Change in PMN Adhesion to TNF Activated ECs,"[2]; 10^-7 M, donor 593, peptide fresh, or 4° for 2 wks",+14%
same,Average % Change of PMN Adhesion to TNF Activated ECs,[2]; 10^-8 M,-12%
same,Percent Change in PMN Adhesion to TNF Activated ECs,"[2]; 10^-8 M, donor 178, peptide fresh",+2%
same,effect of freezing and thawing the peptide on its activity in the adhesion assay,[2]; PMNs from donors 100 and 272,does not significantly effect its activity
